Results reported in the NIST ThermoML archive (doi:10.1021/je200811n).
± gives the expanded uncertainty stated by the source.

Details: Hot wire method

F/C=C/C(F)(F)F [trans-1,3,3,3-tetrafluoropropene]
Details	thermal conductivity [W/m/K]
262.32 K, 98 kPa, Gas	0.01085 ± 0.00037
262.32 K, 15456 kPa, Liquid	0.09473 ± 0.001
262.36 K, 10416 kPa, Liquid	0.09243 ± 0.001
262.42 K, 488 kPa, Liquid	0.08745 ± 0.00096
262.42 K, 5301 kPa, Liquid	0.08997 ± 0.00098
262.42 K, 21223 kPa, Liquid	0.09713 ± 0.0011
262.45 K, 15452 kPa, Liquid	0.09456 ± 0.001
262.49 K, 10417 kPa, Liquid	0.09221 ± 0.001
262.56 K, 488 kPa, Liquid	0.08718 ± 0.00096
262.56 K, 5298 kPa, Liquid	0.08972 ± 0.00098
262.61 K, 123 kPa, Gas	0.01085 ± 0.00037
262.62 K, 107 kPa, Gas	0.01086 ± 0.00038
262.63 K, 98 kPa, Gas	0.01084 ± 0.00037
262.65 K, 80 kPa, Gas	0.01085 ± 0.00037
262.67 K, 97 kPa, Gas	0.01087 ± 0.00038
262.79 K, 21214 kPa, Liquid	0.0972 ± 0.0011
262.84 K, 15455 kPa, Liquid	0.09447 ± 0.001
262.89 K, 10416 kPa, Liquid	0.0922 ± 0.001
262.96 K, 5304 kPa, Liquid	0.0897 ± 0.00098
262.96 K, 21225 kPa, Liquid	0.09681 ± 0.001
262.98 K, 488 kPa, Liquid	0.08717 ± 0.00095
262.99 K, 121 kPa, Gas	0.0108 ± 0.00037
263 K, 15446 kPa, Liquid	0.0942 ± 0.001
263.01 K, 106 kPa, Gas	0.01081 ± 0.00037
263.02 K, 97 kPa, Gas	0.01085 ± 0.00037
263.04 K, 80 kPa, Gas	0.01079 ± 0.00037
263.05 K, 98 kPa, Gas	0.01086 ± 0.00038
263.06 K, 10416 kPa, Liquid	0.09188 ± 0.001
263.13 K, 5299 kPa, Liquid	0.08937 ± 0.00098
263.16 K, 488 kPa, Liquid	0.08692 ± 0.00095
263.36 K, 21219 kPa, Liquid	0.09681 ± 0.0011
263.39 K, 119 kPa, Gas	0.01089 ± 0.00038
263.4 K, 15447 kPa, Liquid	0.0942 ± 0.001
263.42 K, 104 kPa, Gas	0.01088 ± 0.00038
263.43 K, 97 kPa, Gas	0.01089 ± 0.00038
263.45 K, 80 kPa, Gas	0.01089 ± 0.00038
263.45 K, 98 kPa, Gas	0.01081 ± 0.00037
263.48 K, 10415 kPa, Liquid	0.09186 ± 0.001
263.55 K, 21219 kPa, Liquid	0.09652 ± 0.001
263.56 K, 5297 kPa, Liquid	0.08933 ± 0.00098
263.59 K, 488 kPa, Liquid	0.08681 ± 0.00095
263.6 K, 15455 kPa, Liquid	0.09401 ± 0.001
263.68 K, 10416 kPa, Liquid	0.09153 ± 0.001
263.77 K, 5291 kPa, Liquid	0.08901 ± 0.00098
263.8 K, 488 kPa, Liquid	0.08652 ± 0.00095
272.01 K, 173 kPa, Gas	0.01193 ± 0.00041
272.22 K, 93 kPa, Gas	0.01165 ± 0.0004
272.23 K, 118 kPa, Gas	0.01168 ± 0.0004
272.23 K, 164 kPa, Gas	0.01178 ± 0.0004
272.24 K, 170 kPa, Gas	0.01181 ± 0.00041
272.27 K, 80 kPa, Gas	0.01132 ± 0.00039
272.44 K, 180 kPa, Gas	0.01146 ± 0.00039
272.47 K, 93 kPa, Gas	0.01156 ± 0.0004
272.47 K, 117 kPa, Gas	0.01157 ± 0.0004
272.47 K, 162 kPa, Gas	0.01169 ± 0.0004
272.51 K, 78 kPa, Gas	0.01132 ± 0.00039
272.73 K, 92 kPa, Gas	0.01149 ± 0.00039
272.73 K, 159 kPa, Gas	0.01161 ± 0.0004
272.74 K, 116 kPa, Gas	0.0115 ± 0.0004
272.74 K, 177 kPa, Gas	0.01151 ± 0.0004
272.76 K, 76 kPa, Gas	0.01132 ± 0.00039
272.99 K, 157 kPa, Gas	0.01156 ± 0.0004
273 K, 90 kPa, Gas	0.01144 ± 0.00039
273.01 K, 114 kPa, Gas	0.01146 ± 0.00039
273.03 K, 74 kPa, Gas	0.01133 ± 0.00039
273.1 K, 175 kPa, Gas	0.01153 ± 0.0004
273.28 K, 154 kPa, Gas	0.01152 ± 0.0004
273.29 K, 89 kPa, Gas	0.01139 ± 0.00039
273.3 K, 112 kPa, Gas	0.01142 ± 0.00039
273.31 K, 73 kPa, Gas	0.01134 ± 0.00039
273.47 K, 172 kPa, Gas	0.01157 ± 0.0004
273.48 K, 166 kPa, Gas	0.0116 ± 0.0004
273.58 K, 119 kPa, Gas	0.01167 ± 0.0004
273.62 K, 94 kPa, Gas	0.01167 ± 0.0004
273.64 K, 84 kPa, Gas	0.01168 ± 0.0004
273.88 K, 163 kPa, Gas	0.0116 ± 0.0004
274 K, 118 kPa, Gas	0.01166 ± 0.0004
274.07 K, 93 kPa, Gas	0.01171 ± 0.0004
274.08 K, 78 kPa, Gas	0.01173 ± 0.0004
274.32 K, 160 kPa, Gas	0.01166 ± 0.0004
274.45 K, 116 kPa, Gas	0.01173 ± 0.0004
274.52 K, 92 kPa, Gas	0.01174 ± 0.0004
274.54 K, 77 kPa, Gas	0.01173 ± 0.0004
274.78 K, 158 kPa, Gas	0.01168 ± 0.0004
274.92 K, 115 kPa, Gas	0.01175 ± 0.0004
275.01 K, 91 kPa, Gas	0.01175 ± 0.0004
275.03 K, 75 kPa, Gas	0.01176 ± 0.0004
275.27 K, 155 kPa, Gas	0.01171 ± 0.0004
275.43 K, 113 kPa, Gas	0.01179 ± 0.0004
275.53 K, 90 kPa, Gas	0.0118 ± 0.0004
275.55 K, 73 kPa, Gas	0.01186 ± 0.00041
281.19 K, 491 kPa, Liquid	0.08061 ± 0.00089
281.19 K, 20251 kPa, Liquid	0.09143 ± 0.001
281.22 K, 15223 kPa, Liquid	0.08878 ± 0.00097
281.25 K, 10286 kPa, Liquid	0.08621 ± 0.00094
281.25 K, 23293 kPa, Liquid	0.09262 ± 0.001
281.26 K, 20239 kPa, Liquid	0.09104 ± 0.001
281.27 K, 458 kPa, Liquid	0.08057 ± 0.0009
281.27 K, 5355 kPa, Liquid	0.08361 ± 0.00092
281.29 K, 15230 kPa, Liquid	0.0886 ± 0.00097
281.32 K, 10282 kPa, Liquid	0.08605 ± 0.00094
281.34 K, 5380 kPa, Liquid	0.08336 ± 0.00092
281.37 K, 102 kPa, Gas	0.01233 ± 0.00042
281.37 K, 144 kPa, Gas	0.01241 ± 0.00042
281.37 K, 199 kPa, Gas	0.01253 ± 0.00043
281.37 K, 244 kPa, Gas	0.01266 ± 0.00043
281.57 K, 23287 kPa, Liquid	0.09254 ± 0.001
281.59 K, 243 kPa, Gas	0.01263 ± 0.00043
281.59 K, 20208 kPa, Liquid	0.09091 ± 0.00099
281.6 K, 199 kPa, Gas	0.01245 ± 0.00043
281.61 K, 101 kPa, Gas	0.01221 ± 0.00042
281.61 K, 142 kPa, Gas	0.0123 ± 0.0004

Liquid
Details	thermal conductivity [W/m/K]
263.15 K	0.08688 ± 0.00055
273.15 K	0.08321 ± 0.00053
